In series [1] the test system is tyrosinase (from mushrooms). Description: Purified tyrosinase activity, DOPAchrome formation. The note with it: 8.0 mM, up to 10 minutes; FIG. 2. In kind it is biochemical. The protocol:
Activity of purified tyrosinase was measured by monitoring the formation of DOPAchrome. Briefly, a fixed concentration of L-DOPA (8.0 mM) was incubated with 800 U/ml tyrosinase (from mushrooms-Sigma, St. Louis, Mo.) in the absence or presence of increasing concentrations of PABA, compound 44 (C-44) and compound 45 (C-45) (see FIG. 1 for structures) for indicated time points (see FIG. 2 for concentrations and time points). At each time point, 100 μl of the reaction mixture was measured. Data points represent the mean optical density at 475 nm±SD from triplicate wells.

For series [2], the system named is 4T1 breast carcinoma cells. Description: Tumor cell proliferation, WST-1 tetrazolium salt cleavage. In kind it is cell-based. Conditions: 50 μg/ml test compound, 0.01 μM TAXOL®; vs untreated control; FIG. 3C. The protocol:
(§1) Tumor cell proliferation was assessed by monitoring mitochondrial dehydrogenase activity as detected by tetrazolium salt cleavage using a commercially available kit (WST-1; Roche, Indianapolis, Ind.). Briefly, B16F10 melanoma cells, Lewis Lung carcinoma cells, and 4T1 breast carcinoma cells (1×10^6) were resuspended in PABA-free growth medium supplemented with 2.0% fetal bovine serum and 50 μg/ml of test compound (as shown in FIG. 1) Following incubation for 3 days, the cells were either treated or not treated with 0.01 μM TAXOL® and incubated for an additional 48 hours. Proliferation was measured; data points represent the mean optical density at 490 nm±SD from triplicate wells.
(Tetrazolium assays rely on reduction of a dye to a coloured formazan, in cell work by metabolically active cells.)

Series [3] concerns B16F10 melanoma cells. Described as above. In kind it is cell-based. The note with it: 50 μg/ml test compound, 0.01 μM TAXOL®; vs untreated control; FIG. 3A. The protocol: as §1
In series [4] the test system is Lewis Lung carcinoma cells. The series is described as above. In kind it is cell-based. Conditions: 50 μg/ml test compound, 0.01 μM TAXOL®; vs untreated control; FIG. 3B. The protocol: as §1
For series [5], the system named is B16F10 melanoma cells. As to the kind of experiment: In vivo tumor growth of B16F10 xenografts in nude mice. The note with it: daily i.p. for 15 days, TAXOL® 0.5 μM, C-45 100 μg; FIG. 4. The protocol:
In addition, tumor growth in vivo of xenografts of B16F10 melanoma cells in nude mice was determined Briefly, subconfluent cultures of B16F10 cells were harvested, washed, and resuspended in sterile PBS. Female nude mice were injected subcutaneously with 1×10^6 cells per mouse and tumors were allowed to grow for 3 days. After 3 days, mice were either untreated or treated daily for 15 days by intraperitoneal injection of TAXOL® (0.5 μM), C-45 (100 μg), or a combination of TAXOL® and C-45. Tumor growth was determined weekly by caliper measurements. After 15 days, the mice were sacrificed and tumor volume was determined by standard methods using the formula […], where V=volume, L=length, and W=width.

Series [6] relates to B16F10 melanoma cells. Description: Chick embryo tumor growth model. The note with it: for growth of the B16F10 tumors: 50 μg/ml C-45, TAXOL® 0.01 μM, FIG. 5B. In kind it is in vivo, chick embryos. The protocol: The chick embryo tumor growth model was used to determine whether C-45 enhances the ability of TAXOL® or ionizing radiation to inhibit tumor growth. Briefly, B16F10 melanoma cells were cultured in growth medium in the presence or absence of 50 μg/ml C-45 for at least 7 days. Following harvesting and washing, about 2×10^5 tumor cells were implanted onto the chorioallontoic membranes of 10 day-old chick embryos and incubated for at least 24 hours. Following incubation, the embryos were treated with either a single fractionated dose of radiation (5.0 Gy) or TAXOL® (paclitaxel) (0.01 μM) and incubated for an additional 7 days. The embryos were sacrificed and tumors were resected and weighed (5-10 embryos per condition).

Series [7] concerns G361 human melanoma cells. As to the kind of experiment: Protein expression in PABA-treated G361 melanoma cells (data not shown). In kind it is cell-based. The note with it: G361 cells treated with PABA.
For a further series, the target named is T1, PXR/SXR receptor (Homo sapiens, UniProt O75469).
T1 sequence (O75469 1-434): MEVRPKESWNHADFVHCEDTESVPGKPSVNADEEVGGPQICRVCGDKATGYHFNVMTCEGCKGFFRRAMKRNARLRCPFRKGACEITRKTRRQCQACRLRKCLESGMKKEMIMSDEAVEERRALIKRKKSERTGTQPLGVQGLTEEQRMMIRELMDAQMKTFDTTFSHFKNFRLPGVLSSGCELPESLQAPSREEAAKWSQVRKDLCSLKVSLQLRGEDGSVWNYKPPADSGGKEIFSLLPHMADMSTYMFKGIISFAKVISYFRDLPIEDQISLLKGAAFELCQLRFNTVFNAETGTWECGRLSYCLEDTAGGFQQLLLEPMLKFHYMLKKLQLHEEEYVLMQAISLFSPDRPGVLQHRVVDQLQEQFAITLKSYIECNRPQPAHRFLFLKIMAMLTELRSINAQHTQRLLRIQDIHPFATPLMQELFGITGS
The note with it: Moore et al., Mol. Endocrinol. 2002; cited from earlier work.

With `C=CCNc1ccc(C(=O)O)cc1` [C-45, 4-allylaminobenzoic acid], the tyrosinase activity result in series [1] is “inhibited tyrosinase activity”. Moreover, the “in vitro proliferation of 4T1 breast carcinoma cells” value in series [2] is recorded as “inhibited in vitro proliferation”. The “in vitro proliferation of B16F10 cells” value with B16F10 melanoma cells [3] is on record as “inhibited in vitro proliferation”. Also, the “in vitro proliferation of Lewis Lung carcinoma cells” value in series [4] is “inhibited in vitro proliferation”. Besides, in the series with B16F10 melanoma cells [5], the “in vivo tumor growth compared to untreated controls” value is listed as “neither TAXOL® nor C-45 inhibited in vivo tumor growth”. For the same molecule, the “growth of the B16F10 tumors” value in the series on B16F10 melanoma cells [6] is listed as “inhibited the growth of the B16F10 tumors significantly”. Besides, in the series with B16F10 melanoma cells [6] (50 μg/ml C-45 plus single dose of radiation 5.0 Gy, FIG. 5A), the “tumor growth in vivo, combination with radiation” value is “even more effective at inhibiting tumor growth”. Further, the tumor weight entry with B16F10 melanoma cells [6] (cells cultured with 50 μg/ml C-45, C-45 alone, FIG. 5A) was “reduced tumor weight significantly”.
Turning to `CC(=O)O[C@H]1C(=O)[C@@]2(C)[C@H]([C@H](OC(=O)c3ccccc3)[C@]3(O)C[C@H](OC(=O)[C@H](O)[C@@H](NC(=O)c4ccccc4)c4ccccc4)C(C)=C1C3(C)C)[C@]1(OC(C)=O)CO[C@@H]1C[C@@H]2O` [TAXOL®, paclitaxel, reference compound], the “in vitro proliferation of 4T1 breast carcinoma cells” value in series [2] is listed as “inhibited in vitro proliferation”. Moreover, the “in vitro proliferation of B16F10 cells” value in the series with B16F10 melanoma cells [3] is listed as “inhibited in vitro proliferation”. Moreover, the “in vitro proliferation of Lewis Lung carcinoma cells” value in series [4] is “inhibited in vitro proliferation”. Also, the “in vivo tumor growth compared to untreated controls” value in the series on B16F10 melanoma cells [5] was “neither TAXOL® nor C-45 inhibited in vivo tumor growth”. Moreover, the “growth of the B16F10 tumors” value in the series with B16F10 melanoma cells [6] is listed as “inhibited the growth of the B16F10 tumors significantly”.
`Nc1ccc(C(=O)O)cc1` [PABA, para-amino-benzoic-acid]: the tyrosinase activity entry in series [1] is reported as “inhibited tyrosinase activity”. Moreover, in series [7], the “expression of cell-cycle progression checkpoint protein CDC25A” value was “increase expression” and the “protein expression of DNA repair protein BRCA-2” value is recorded as “decreased protein expression”. Further, the “binding to the PXR/SXR receptor” value at PXR/SXR receptor is on record as “bind to the PXR/SXR receptor”.

The values are drawn from patent publication US8710099B2, “Treatment of cancer using the sodium salt of a benzoic acid derivative” (New York University, priority 2009, dated 2014).
